Assay results taken from ChEMBL document CHEMBL4507258 (2021).

Assays:
[1] = system: Tyrosine-protein kinase ABL1 (Homo sapiens), P00519 [F317L]; settings: Compound concentration 1000.0 nM
[2] = target: Insulin receptor (Homo sapiens) (UniProt P06213); settings: Compound concentration 1000.0 nM
[3] = target: Tyrosine-protein kinase ZAP-70 (Homo sapiens) (UniProt P43403); settings: Compound concentration 1000.0 nM
[4] = target: cGMP-dependent protein kinase 1 (Homo sapiens) (UniProt Q13976); settings: Compound concentration 1000.0 nM
[5] = target: Ribosomal protein S6 kinase alpha-3 (Homo sapiens) (UniProt P51812); settings: Compound concentration 1000.0 nM
[6] = target: Microtubule-associated serine/threonine-protein kinase 1 (Homo sapiens) (UniProt Q9Y2H9); settings: Compound concentration 1000.0 nM
[7] = target: Serine/threonine-protein kinase NIM1 (Homo sapiens) (UniProt Q8IY84); settings: Compound concentration 1000.0 nM
[8] = target: Tyrosine-protein kinase JAK2 (Homo sapiens) (UniProt O60674); settings: Compound concentration 1000.0 nM
[9] = target: Ephrin type-A receptor 8 (Homo sapiens) (UniProt P29322); settings: Compound concentration 1000.0 nM
[10] = target: Peripheral plasma membrane protein CASK (Homo sapiens) (UniProt O14936); settings: Compound concentration 1000.0 nM
[11] = target: Mitogen-activated protein kinase kinase kinase 20 (Homo sapiens) (UniProt Q9NYL2); settings: Compound concentration 1000.0 nM
[12] = target: 5-hydroxytryptamine receptor 2A (Homo sapiens) (UniProt P28223); settings: Compound concentration 10.0 uM
[13] = target: Tyrosine-protein kinase ABL1 (Homo sapiens) (UniProt P00519); settings: Compound concentration 1000.0 nM
[14] = target: Serine/threonine-protein kinase SBK1 (Homo sapiens) (UniProt Q52WX2); settings: Compound concentration 1000.0 nM
[15] = target: T1, 5-hydroxytryptamine receptor 1A (Homo sapiens) (UniProt P08908); settings: Compound concentration 10.0 uM
T1 sequence (whole entry): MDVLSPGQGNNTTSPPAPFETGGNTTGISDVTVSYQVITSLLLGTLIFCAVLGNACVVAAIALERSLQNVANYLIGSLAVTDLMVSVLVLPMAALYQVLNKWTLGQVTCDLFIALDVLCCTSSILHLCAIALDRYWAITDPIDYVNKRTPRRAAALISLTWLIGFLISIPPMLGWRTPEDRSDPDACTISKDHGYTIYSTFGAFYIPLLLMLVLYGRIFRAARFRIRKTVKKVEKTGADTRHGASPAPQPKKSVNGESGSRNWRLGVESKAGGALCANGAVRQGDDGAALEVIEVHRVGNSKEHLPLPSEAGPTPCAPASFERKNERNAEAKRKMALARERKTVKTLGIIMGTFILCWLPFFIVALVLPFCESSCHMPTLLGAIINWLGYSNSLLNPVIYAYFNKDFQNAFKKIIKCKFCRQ

[16] = target: Phosphorylase b kinase gamma catalytic chain, skeletal muscle/heart isoform (Homo sapiens) (UniProt Q16816); settings: Compound concentration 1000.0 nM
[17] = target: Mitogen-activated protein kinase kinase kinase 13 (Homo sapiens) (UniProt O43283); settings: Compound concentration 1000.0 nM
[18] = target: Fibroblast growth factor receptor 4 (Homo sapiens) (UniProt P22455); settings: Compound concentration 1000.0 nM
[19] = target: Dual specificity protein kinase CLK1 (Homo sapiens) (UniProt P49759); settings: Compound concentration 1000.0 nM
[20] = target: Proto-oncogene tyrosine-protein kinase ROS (Homo sapiens) (UniProt P08922); settings: Compound concentration 1000.0 nM
[21] = target: Serine/threonine-protein kinase DCLK2 (Homo sapiens) (UniProt Q8N568); settings: Compound concentration 1000.0 nM
[22] = target: Vascular endothelial growth factor receptor 1 (Homo sapiens) (UniProt P17948); settings: Compound concentration 1000.0 nM
[23] = system: Serine/threonine-protein kinase B-raf (Homo sapiens), P15056 [V600E]; settings: Compound concentration 1000.0 nM
[24] = target: 5-hydroxytryptamine receptor 1B (Homo sapiens) (UniProt P28222); settings: Compound concentration 10.0 uM
[25] = target: Serine/threonine-protein kinase 35 (Homo sapiens) (UniProt Q8TDR2); settings: Compound concentration 1000.0 nM
[26] = target: Interleukin-1 receptor-associated kinase 1 (Homo sapiens) (UniProt P51617); settings: Compound concentration 1000.0 nM
[27] = target: Cyclin-dependent kinase 2 homolog (Plasmodium falciparum (isolate 3D7)) (UniProt P61075); settings: Compound concentration 1000.0 nM
[28] = target: Cyclin-dependent kinase 5 (Homo sapiens) (UniProt Q00535); settings: Compound concentration 1000.0 nM
[29] = target: Casein kinase I isoform epsilon (Homo sapiens) (UniProt P49674); settings: Compound concentration 1000.0 nM
[30] = target: Phosphatidylinositol 3-kinase C2 domain-containing subunit gamma (Homo sapiens) (UniProt O75747); settings: Compound concentration 1000.0 nM
[31] = target: Serine/threonine-protein kinase 38 (Homo sapiens) (UniProt Q15208); settings: Compound concentration 1000.0 nM
[32] = target: Serine/threonine-protein kinase 33 (Homo sapiens) (UniProt Q9BYT3); settings: Compound concentration 1000.0 nM
[33] = target: Tyrosine-protein kinase Lyn (Homo sapiens) (UniProt P07948); settings: Compound concentration 1000.0 nM
[34] = target: Serine/threonine-protein kinase 10 (Homo sapiens) (UniProt O94804); settings: Compound concentration 1000.0 nM
[35] = system: Epidermal growth factor receptor (Homo sapiens), P00533 [L861Q]; settings: Compound concentration 1000.0 nM
[36] = target: Serine/threonine-protein kinase Nek11 (Homo sapiens) (UniProt Q8NG66); settings: Compound concentration 1000.0 nM
[37] = target: Serine/threonine-protein kinase 36 (Homo sapiens) (UniProt Q9NRP7); settings: Compound concentration 1000.0 nM
[38] = target: Protein kinase C delta type (Homo sapiens) (UniProt Q05655); settings: Compound concentration 1000.0 nM
[39] = target: Serine/threonine-protein kinase 17B (Homo sapiens) (UniProt O94768); settings: Compound concentration 1000.0 nM
[40] = target: Homeodomain-interacting protein kinase 1 (Homo sapiens) (UniProt Q86Z02); settings: Compound concentration 1000.0 nM

Interleukin-1 receptor-associated kinase 1 (Homo sapiens), sequence (P51617 whole entry, looked up): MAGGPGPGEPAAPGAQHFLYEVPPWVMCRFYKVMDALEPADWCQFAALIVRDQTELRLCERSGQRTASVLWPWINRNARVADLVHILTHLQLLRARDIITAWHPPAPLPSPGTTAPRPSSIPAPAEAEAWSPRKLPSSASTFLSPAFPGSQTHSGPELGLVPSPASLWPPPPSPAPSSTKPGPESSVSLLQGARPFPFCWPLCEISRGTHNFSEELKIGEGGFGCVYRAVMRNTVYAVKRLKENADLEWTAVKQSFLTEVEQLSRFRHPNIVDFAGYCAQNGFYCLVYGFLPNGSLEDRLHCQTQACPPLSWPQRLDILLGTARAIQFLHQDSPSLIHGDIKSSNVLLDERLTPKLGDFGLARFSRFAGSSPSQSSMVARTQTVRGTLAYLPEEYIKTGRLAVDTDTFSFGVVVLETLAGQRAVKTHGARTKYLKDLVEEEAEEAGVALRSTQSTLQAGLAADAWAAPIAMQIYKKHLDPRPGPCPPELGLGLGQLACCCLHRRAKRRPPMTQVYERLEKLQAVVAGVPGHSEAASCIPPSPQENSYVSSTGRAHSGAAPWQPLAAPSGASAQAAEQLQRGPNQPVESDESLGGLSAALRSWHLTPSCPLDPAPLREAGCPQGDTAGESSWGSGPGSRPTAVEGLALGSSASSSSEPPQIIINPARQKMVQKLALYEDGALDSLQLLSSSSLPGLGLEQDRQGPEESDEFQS
Serine/threonine-protein kinase 33 (Homo sapiens), sequence (Q9BYT3 whole entry, looked up): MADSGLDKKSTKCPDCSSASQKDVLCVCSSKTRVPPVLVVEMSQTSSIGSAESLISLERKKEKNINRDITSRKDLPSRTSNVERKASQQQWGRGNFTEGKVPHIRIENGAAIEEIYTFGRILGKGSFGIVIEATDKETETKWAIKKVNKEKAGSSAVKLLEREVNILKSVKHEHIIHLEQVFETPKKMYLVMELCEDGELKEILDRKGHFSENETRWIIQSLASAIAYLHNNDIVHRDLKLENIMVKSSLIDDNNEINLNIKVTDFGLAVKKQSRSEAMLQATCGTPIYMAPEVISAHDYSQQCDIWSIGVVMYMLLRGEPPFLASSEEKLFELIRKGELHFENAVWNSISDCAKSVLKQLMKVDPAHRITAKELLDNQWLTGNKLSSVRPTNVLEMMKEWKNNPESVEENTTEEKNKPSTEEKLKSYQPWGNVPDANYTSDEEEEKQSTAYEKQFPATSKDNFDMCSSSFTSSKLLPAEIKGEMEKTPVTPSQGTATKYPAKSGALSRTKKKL
Tyrosine-protein kinase ABL1 (Homo sapiens), P00519 [F317L], sequence (P00519 whole entry F317L): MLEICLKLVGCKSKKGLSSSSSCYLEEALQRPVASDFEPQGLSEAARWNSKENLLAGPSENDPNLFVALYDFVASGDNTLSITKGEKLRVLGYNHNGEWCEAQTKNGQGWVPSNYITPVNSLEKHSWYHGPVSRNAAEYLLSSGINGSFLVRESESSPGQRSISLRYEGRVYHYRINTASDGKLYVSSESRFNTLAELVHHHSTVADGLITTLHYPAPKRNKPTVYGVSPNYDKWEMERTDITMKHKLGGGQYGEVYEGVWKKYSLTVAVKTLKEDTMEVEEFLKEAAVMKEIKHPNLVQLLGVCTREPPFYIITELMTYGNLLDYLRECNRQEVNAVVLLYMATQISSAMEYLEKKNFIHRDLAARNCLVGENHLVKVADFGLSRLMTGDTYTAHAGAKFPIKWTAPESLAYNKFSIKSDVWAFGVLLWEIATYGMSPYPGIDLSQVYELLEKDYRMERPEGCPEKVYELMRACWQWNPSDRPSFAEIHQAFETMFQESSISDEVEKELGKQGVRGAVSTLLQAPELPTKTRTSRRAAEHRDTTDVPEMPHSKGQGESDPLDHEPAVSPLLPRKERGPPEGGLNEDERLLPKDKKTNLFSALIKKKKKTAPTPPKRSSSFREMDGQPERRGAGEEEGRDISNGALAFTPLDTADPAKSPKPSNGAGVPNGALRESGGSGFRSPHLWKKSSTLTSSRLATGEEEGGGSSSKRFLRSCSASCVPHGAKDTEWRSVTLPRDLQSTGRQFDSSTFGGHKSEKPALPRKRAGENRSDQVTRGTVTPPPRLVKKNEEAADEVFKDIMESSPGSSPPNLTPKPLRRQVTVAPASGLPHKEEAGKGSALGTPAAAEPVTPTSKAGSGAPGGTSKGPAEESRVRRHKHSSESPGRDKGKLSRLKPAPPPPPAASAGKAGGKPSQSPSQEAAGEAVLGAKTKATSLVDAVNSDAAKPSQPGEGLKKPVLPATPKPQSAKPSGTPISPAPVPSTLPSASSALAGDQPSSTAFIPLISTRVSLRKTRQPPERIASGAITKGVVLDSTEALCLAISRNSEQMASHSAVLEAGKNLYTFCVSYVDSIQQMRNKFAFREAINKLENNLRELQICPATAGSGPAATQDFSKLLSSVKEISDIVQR
5-hydroxytryptamine receptor 1B (Homo sapiens), sequence (P28222 whole entry): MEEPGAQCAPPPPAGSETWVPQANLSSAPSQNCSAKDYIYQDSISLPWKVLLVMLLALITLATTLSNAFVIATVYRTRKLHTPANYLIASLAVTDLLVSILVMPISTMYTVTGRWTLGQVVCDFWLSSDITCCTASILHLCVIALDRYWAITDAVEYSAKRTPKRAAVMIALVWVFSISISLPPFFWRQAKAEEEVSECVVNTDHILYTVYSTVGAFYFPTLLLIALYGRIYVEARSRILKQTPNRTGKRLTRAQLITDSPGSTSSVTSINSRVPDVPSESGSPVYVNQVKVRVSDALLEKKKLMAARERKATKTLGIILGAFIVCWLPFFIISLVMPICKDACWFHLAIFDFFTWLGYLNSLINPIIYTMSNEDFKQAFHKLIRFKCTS
Serine/threonine-protein kinase 17B (Homo sapiens), sequence (O94768 whole entry): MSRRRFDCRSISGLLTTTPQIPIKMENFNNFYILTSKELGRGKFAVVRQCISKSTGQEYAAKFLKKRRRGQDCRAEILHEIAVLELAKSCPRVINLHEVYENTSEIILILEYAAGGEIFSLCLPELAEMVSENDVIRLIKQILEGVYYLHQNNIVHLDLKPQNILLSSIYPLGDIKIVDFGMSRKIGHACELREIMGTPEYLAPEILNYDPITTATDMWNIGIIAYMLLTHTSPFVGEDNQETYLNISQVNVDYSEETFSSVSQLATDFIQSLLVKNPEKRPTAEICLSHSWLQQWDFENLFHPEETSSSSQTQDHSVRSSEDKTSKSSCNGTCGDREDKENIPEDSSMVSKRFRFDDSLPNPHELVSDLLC
5-hydroxytryptamine receptor 2A (Homo sapiens), sequence (P28223 whole entry): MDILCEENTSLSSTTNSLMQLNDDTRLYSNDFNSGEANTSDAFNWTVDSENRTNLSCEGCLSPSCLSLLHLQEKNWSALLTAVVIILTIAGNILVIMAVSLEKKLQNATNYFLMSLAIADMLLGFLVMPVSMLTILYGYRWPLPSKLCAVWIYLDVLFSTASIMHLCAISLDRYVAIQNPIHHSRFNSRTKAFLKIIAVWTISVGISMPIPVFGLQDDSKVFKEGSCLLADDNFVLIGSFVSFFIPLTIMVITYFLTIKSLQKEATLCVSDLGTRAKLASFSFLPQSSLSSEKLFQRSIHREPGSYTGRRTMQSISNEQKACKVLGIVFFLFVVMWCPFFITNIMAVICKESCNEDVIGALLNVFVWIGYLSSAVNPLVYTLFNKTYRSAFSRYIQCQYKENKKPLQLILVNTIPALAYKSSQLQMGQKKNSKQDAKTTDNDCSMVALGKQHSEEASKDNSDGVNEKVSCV
Phosphorylase b kinase gamma catalytic chain, skeletal muscle/heart isoform (Homo sapiens), sequence (Q16816 whole entry, looked up, canonical isoform): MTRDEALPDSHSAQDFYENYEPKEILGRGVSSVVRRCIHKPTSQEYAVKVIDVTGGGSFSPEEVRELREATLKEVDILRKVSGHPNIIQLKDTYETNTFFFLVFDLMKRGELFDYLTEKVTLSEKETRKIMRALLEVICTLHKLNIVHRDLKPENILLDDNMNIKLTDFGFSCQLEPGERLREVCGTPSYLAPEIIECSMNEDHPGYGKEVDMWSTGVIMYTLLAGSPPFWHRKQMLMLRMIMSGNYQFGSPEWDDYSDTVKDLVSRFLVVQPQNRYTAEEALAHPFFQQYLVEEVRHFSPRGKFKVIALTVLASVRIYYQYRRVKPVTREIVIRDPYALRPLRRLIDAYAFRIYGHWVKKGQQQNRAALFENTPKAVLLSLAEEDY
Mitogen-activated protein kinase kinase kinase 20 (Homo sapiens), sequence (Q9NYL2 2-800 limits assumed): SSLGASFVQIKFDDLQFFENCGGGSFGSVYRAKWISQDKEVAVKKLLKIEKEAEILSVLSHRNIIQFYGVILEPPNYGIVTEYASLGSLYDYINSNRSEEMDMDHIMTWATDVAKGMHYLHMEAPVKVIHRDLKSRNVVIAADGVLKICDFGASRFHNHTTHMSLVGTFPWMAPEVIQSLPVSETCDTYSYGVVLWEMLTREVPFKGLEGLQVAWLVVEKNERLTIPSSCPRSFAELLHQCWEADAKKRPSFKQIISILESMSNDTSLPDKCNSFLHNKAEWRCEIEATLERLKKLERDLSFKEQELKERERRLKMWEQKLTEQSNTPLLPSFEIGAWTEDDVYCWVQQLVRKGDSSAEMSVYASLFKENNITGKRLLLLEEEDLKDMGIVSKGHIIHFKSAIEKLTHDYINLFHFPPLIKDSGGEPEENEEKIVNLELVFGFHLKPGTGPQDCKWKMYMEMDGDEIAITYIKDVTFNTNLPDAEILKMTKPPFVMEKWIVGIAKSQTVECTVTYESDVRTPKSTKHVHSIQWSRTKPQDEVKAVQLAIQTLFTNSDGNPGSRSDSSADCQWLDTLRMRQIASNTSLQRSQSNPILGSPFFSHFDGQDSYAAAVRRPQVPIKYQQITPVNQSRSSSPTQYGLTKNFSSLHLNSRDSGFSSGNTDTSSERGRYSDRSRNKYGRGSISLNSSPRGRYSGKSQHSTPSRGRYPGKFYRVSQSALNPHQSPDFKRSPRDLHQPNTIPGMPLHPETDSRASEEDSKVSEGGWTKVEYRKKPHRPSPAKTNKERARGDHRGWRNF
Tyrosine-protein kinase ABL1 (Homo sapiens), sequence (P00519 whole entry): as the sequence (P00519 whole entry F317L) above, with L317F counted along it

Question: How did the residual activity [1] turn out when CCCCN(CCCC)C(=O)CN1C[C@H](c2cc(OC)c3c(c2)OCO3)[C@@H](C(=O)O)[C@@H]1CC(C)(C)CCC [ABT-546] was run?
Answer: Its residual activity is 96.7%.

Question: And the residual activity [2]?
Answer: The residual activity was 75.8%.

Question: What about the residual activity [3] of the same molecule?
Answer: Its residual activity is 70.1%.

Question: And the residual activity [4]?
Answer: Its residual activity is 100%.

Question: And the residual activity [5]?
Answer: Its residual activity is 100%.

Question: What about the residual activity [6] of the same molecule?
Answer: The residual activity was 100%.

Question: What about the residual activity [7] of the same molecule?
Answer: The residual activity was 100%.

Question: And the residual activity [8]?
Answer: Its residual activity is 100%.

Question: And the residual activity [9]?
Answer: The residual activity was 100%.

Question: What about the residual activity [10] of the same molecule?
Answer: The residual activity was 70%.

Question: And the residual activity [11]?
Answer: Its residual activity is 85.2%.

Question: What about the inhibition [12] of the same molecule?
Answer: Its inhibition is 8.83%.

Question: What about the residual activity [13] of the same molecule?
Answer: Its residual activity is 79.8%.

Question: What about the residual activity [14] of the same molecule?
Answer: The residual activity was 76.5%.

Question: What about the inhibition [15] of the same molecule?
Answer: The inhibition was 20.6%.

Question: What about the residual activity [16] of the same molecule?
Answer: The residual activity was 100%.

Question: And the residual activity [17]?
Answer: The residual activity was 89.3%.

Question: What about the residual activity [18] of the same molecule?
Answer: Its residual activity is 100%.

Question: What about the residual activity [19] of the same molecule?
Answer: Its residual activity is 96.1%.

Question: And the residual activity [20]?
Answer: Its residual activity is 100%.

Question: What about the residual activity [21] of the same molecule?
Answer: Its residual activity is 100%.

Question: And the residual activity [22]?
Answer: The residual activity was 100%.

Question: And the residual activity [23]?
Answer: Its residual activity is 89.1%.

Question: What about the inhibition [24] of the same molecule?
Answer: The inhibition was 2.64%.

Question: What about the residual activity [25] of the same molecule?
Answer: The residual activity was 100%.

Question: What about the residual activity [26] of the same molecule?
Answer: Its residual activity is 64.3%.

Question: And the residual activity [27]?
Answer: Its residual activity is 72.2%.

Question: What about the residual activity [28] of the same molecule?
Answer: The residual activity was 100%.

Question: What about the residual activity [29] of the same molecule?
Answer: Its residual activity is 100%.

Question: What about the residual activity [30] of the same molecule?
Answer: Its residual activity is 100%.

Question: And the residual activity [31]?
Answer: The residual activity was 80.7%.

Question: What about the residual activity [32] of the same molecule?
Answer: The residual activity was 100%.

Question: And the residual activity [33]?
Answer: Its residual activity is 100%.

Question: What about the residual activity [34] of the same molecule?
Answer: The residual activity was 100%.

Question: What about the residual activity [35] of the same molecule?
Answer: Its residual activity is 76.4%.

Question: What about the residual activity [36] of the same molecule?
Answer: Its residual activity is 85.8%.

Question: What about the residual activity [37] of the same molecule?
Answer: Its residual activity is 100%.

Question: And the residual activity [38]?
Answer: Its residual activity is 100%.

Question: And the residual activity [39]?
Answer: The residual activity was 100%.

Question: What about the residual activity [40] of the same molecule?
Answer: Its residual activity is 100%.

Question: For CCCCN(CCCC)C(=O)CN1C[C@@H](c2cc(OC)c3c(c2)OCO3)[C@H](C(=O)O)[C@H]1CC(C)(C)CCC [A-545], which residual activity [1] is on record?
Answer: Its residual activity is 93.5%.

Question: And the residual activity [2]?
Answer: The residual activity was 89%.

Question: And the residual activity [3]?
Answer: The residual activity was 98.5%.

Question: And the residual activity [4]?
Answer: The residual activity was 100%.

Question: And the residual activity [5]?
Answer: The residual activity was 99.2%.

Question: And the residual activity [6]?
Answer: Its residual activity is 100%.

Question: What about the residual activity [7] of the same molecule?
Answer: Its residual activity is 100%.

Question: What about the residual activity [8] of the same molecule?
Answer: The residual activity was 91%.

Question: And the residual activity [9]?
Answer: Its residual activity is 99.9%.

Question: And the residual activity [10]?
Answer: The residual activity was 90.5%.

Question: What about the residual activity [11] of the same molecule?
Answer: Its residual activity is 91.3%.

Question: And the inhibition [12]?
Answer: Its inhibition is 7.84%.

Question: What about the residual activity [13] of the same molecule?
Answer: The residual activity was 100%.

Question: What about the residual activity [14] of the same molecule?
Answer: The residual activity was 90.6%.

Question: What about the inhibition [15] of the same molecule?
Answer: Its inhibition is 76.3%.

Question: And the residual activity [16]?
Answer: The residual activity was 97.5%.

Question: And the residual activity [17]?
Answer: The residual activity was 100%.

Question: What about the residual activity [18] of the same molecule?
Answer: Its residual activity is 95.8%.

Question: What about the residual activity [19] of the same molecule?
Answer: The residual activity was 100%.

Question: And the residual activity [20]?
Answer: The residual activity was 100%.

Question: And the residual activity [21]?
Answer: The residual activity was 87.4%.

Question: What about the residual activity [22] of the same molecule?
Answer: Its residual activity is 100%.

Question: And the residual activity [23]?
Answer: The residual activity was 100%.

Question: And the inhibition [24]?
Answer: The inhibition was -2.98%.

Question: What about the residual activity [25] of the same molecule?
Answer: Its residual activity is 100%.

Question: And the residual activity [26]?
Answer: Its residual activity is 76.6%.

Question: What about the residual activity [27] of the same molecule?
Answer: The residual activity was 95.9%.

Question: And the residual activity [28]?
Answer: Its residual activity is 97.7%.

Question: What about the residual activity [29] of the same molecule?
Answer: The residual activity was 100%.

Question: What about the residual activity [30] of the same molecule?
Answer: The residual activity was 80.3%.

Question: And the residual activity [31]?
Answer: Its residual activity is 95.2%.

Question: What about the residual activity [32] of the same molecule?
Answer: The residual activity was 100%.

Question: And the residual activity [33]?
Answer: The residual activity was 75.1%.

Question: What about the residual activity [34] of the same molecule?
Answer: The residual activity was 82.4%.

Question: And the residual activity [35]?
Answer: The residual activity was 100%.

Question: And the residual activity [36]?
Answer: The residual activity was 100%.

Question: What about the residual activity [37] of the same molecule?
Answer: Its residual activity is 75%.

Question: What about the residual activity [38] of the same molecule?
Answer: The residual activity was 98.2%.

Question: What about the residual activity [39] of the same molecule?
Answer: The residual activity was 100%.

Question: What about the residual activity [40] of the same molecule?
Answer: The residual activity was 77.3%.
